Experimental data taken from publication PMC5826917, “A small molecule inhibitor of Nicotinamide N-methyltransferase for the treatment of metabolic disorders” (Scientific Reports, 2018).

What was measured:
human NNMT = assay: Thermal shift assay, human NNMT; assay type: binding; settings: in presence of SAM, molar ratio enzyme:SAM:compound ~1:5:10
Procedure: Thermal shift assay experiments were carried out as described previously.

[1] = tested on: wild-type and NNMT knockout mice on HFD
Source text: NNMT fl/fl mice on a C57BL/6 background were generated by Regeneron Pharmaceuticals (Tarrytown, NY) using VelociGene® technology. A loxP locus was placed 1.6 kb upstream of the transcription starting site encompassing the gene promoter. A loxP-Frt-Hyg-Frt cassette was inserted 212 bp downstream of NNMT exon 1. The floxed coordinates were chr9:48,412,881–48,414,698. NNMT fl/fl mice were crossed with ZP3-cre mice (C57BL/6, Jackson Laboratories) to generate whole-body NNMT knockout mice. The DIO mouse study was conducted in accordance to the German Animal Protection Law, as well as according to international animal welfare legislation and rules. Female wild-type and NNMT knockout animals were put on high-fat diet (Ssniff HFD adjusted TD.97366) for 18 weeks and then treated with either JBSNF-000088 (50 mg/kg bid by oral gavage) or vehicle for four weeks (n = 9–10 per group). Throughout the study, Mice were housed in an environmentally controlled room at 23 °C on a 12 h:12 h light dark cycle (light on at 06:00 AM), and food and water was offered ad libitum. An oral glucose tolerance test was performed on day 25 of treatment: Animals were fasted overnight. 60 minutes before an oral glucose bolus (2 g kg^−1), JBSNF-000088 (50 mg kg^−1) or vehicle (0.5% HEC + 0.5% Tween80) was administered by oral gavage. For blood glucose analysis, blood was collected from the tail of conscious mice at time points 15, 30, 60 and 120 minutes after the glucose bolus.

[2] = target: Adrenoreceptor alpha 2A (ADRA2A) (Homo sapiens, UniProt P08913); assay: Selectivity panel: ADRA2A; assay type: cell-based
Procedure: (§1) Supplement 41598_2018_22081_MOESM1_ESM.docx, table 2: Supplementary table 2: Selectivity profile of JBSNF-000088 (at 10 µM) vs a panel of 34 receptors, channels and enzymes. | column: E% (agonistic); I% (antagonistic or inhibitory)

[3] = target: Adrenoreceptor beta 1 (ADRB1) (Homo sapiens, UniProt P08588); assay: Selectivity panel: ADRB1; assay type: cell-based
[4] = target: Adrenoreceptor beta 2 (ADRB2) (Homo sapiens, UniProt P07550); assay: Selectivity panel: ADRB2; assay type: cell-based
[5] = target: Cannabinoid Receptor 2 (CB2) (Homo sapiens, UniProt P34972); assay: Selectivity panel: CB2; assay type: cell-based
Procedure: as §1

Cl- Channel = assay: Selectivity panel: Cl- channel; assay type: binding; settings: 10 µM
Dopamine Transporter = Dopamine Transporter (Homo sapiens, UniProt Q01959); assay: Selectivity panel: dopamine transporter; assay type: binding; settings: read-out: I% (antagonistic or inhibitory), Dopamine Transporter
Procedure: (§2) Supplement 41598_2018_22081_MOESM1_ESM.docx, table 2: Supplementary table 2: Selectivity profile of JBSNF-000088 (at 10 µM) vs a panel of 34 receptors, channels and enzymes. | column: I% (antagonistic or inhibitory)

[6] = tested on: K+ Channel Voltage Dependent; assay: Selectivity panel: K+ channel; assay type: binding; settings: 10 µM
[7] = target: Mono Amine Oxydase A (MAO-A) (Homo sapiens, UniProt P21397); assay: Selectivity panel: MAO-A; assay type: biochemical; settings: read-out: I% (antagonistic or inhibitory), MAO-A
Na+/K+ ATPase Pump = assay: Selectivity panel: Na+/K+ ATPase; assay type: biochemical; settings: 10 µM
Niacin receptor (NAR1) = Niacin receptor (NAR1) (Homo sapiens, UniProt Q8TDS4); assay: Selectivity panel: NAR1; assay type: cell-based; settings: 10 µM
[8] = target: Nicotinic AChR alpha4 beta2 (nAChRa4b2) (Homo sapiens, UniProt P17787+P43681); assay: Selectivity panel: nAChRa4b2; assay type: binding; settings: read-out: I% (antagonistic or inhibitory), nAChRa4b2
Procedure: as §2

[9] = target: Opioid Receptor mu (OPRM1) (Homo sapiens, UniProt P35372); assay: Selectivity panel: OPRM1; assay type: cell-based
Procedure: as §1

[10] = tested on: Phencyclidine Receptor (PCP); assay: Selectivity panel: PCP; assay type: binding; settings: 10 µM
Procedure: as §2

[11] = target: Serotonin Receptor 2A (5HT2A) (Homo sapiens, UniProt P28223); assay: Selectivity panel: 5HT2A; assay type: cell-based
Procedure: as §1

SK+Ca channel- = assay: Selectivity panel: SK+Ca channel; assay type: binding; settings: 10 µM
hERG = hERG (Homo sapiens, UniProt Q12809); settings: 10 µM
cytochrome P450 enzymes = settings: 20 µM
[12] = 0.5 h
[13] = C57BL/6, mouse, in vivo, iv

Adrenoreceptor beta 1 (ADRB1), sequence (P08588 whole entry): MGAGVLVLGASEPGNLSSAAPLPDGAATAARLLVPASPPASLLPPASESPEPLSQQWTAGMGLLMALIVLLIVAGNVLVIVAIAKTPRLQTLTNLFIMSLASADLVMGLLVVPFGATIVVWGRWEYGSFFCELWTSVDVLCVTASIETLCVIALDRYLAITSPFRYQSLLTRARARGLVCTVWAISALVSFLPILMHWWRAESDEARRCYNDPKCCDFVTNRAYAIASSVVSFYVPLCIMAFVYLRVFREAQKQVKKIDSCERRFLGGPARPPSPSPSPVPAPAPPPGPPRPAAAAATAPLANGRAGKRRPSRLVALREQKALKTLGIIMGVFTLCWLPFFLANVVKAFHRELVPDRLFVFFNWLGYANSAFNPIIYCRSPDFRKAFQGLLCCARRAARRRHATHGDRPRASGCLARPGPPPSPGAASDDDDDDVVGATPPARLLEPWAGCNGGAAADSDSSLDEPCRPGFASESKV
Serotonin Receptor 2A (5HT2A), sequence (P28223 whole entry): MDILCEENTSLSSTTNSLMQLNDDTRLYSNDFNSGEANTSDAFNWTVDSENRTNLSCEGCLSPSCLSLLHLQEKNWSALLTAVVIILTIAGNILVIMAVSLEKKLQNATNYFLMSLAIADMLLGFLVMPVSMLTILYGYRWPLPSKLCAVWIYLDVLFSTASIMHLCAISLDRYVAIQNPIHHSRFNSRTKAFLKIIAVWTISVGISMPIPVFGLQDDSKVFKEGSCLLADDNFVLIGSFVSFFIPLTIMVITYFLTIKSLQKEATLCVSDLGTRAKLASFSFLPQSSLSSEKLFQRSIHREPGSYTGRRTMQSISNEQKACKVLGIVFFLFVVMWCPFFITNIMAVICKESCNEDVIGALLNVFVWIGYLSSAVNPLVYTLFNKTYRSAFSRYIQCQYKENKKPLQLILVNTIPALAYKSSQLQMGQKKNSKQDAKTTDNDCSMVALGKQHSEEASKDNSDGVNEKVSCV
Cannabinoid Receptor 2 (CB2), sequence (P34972 whole entry): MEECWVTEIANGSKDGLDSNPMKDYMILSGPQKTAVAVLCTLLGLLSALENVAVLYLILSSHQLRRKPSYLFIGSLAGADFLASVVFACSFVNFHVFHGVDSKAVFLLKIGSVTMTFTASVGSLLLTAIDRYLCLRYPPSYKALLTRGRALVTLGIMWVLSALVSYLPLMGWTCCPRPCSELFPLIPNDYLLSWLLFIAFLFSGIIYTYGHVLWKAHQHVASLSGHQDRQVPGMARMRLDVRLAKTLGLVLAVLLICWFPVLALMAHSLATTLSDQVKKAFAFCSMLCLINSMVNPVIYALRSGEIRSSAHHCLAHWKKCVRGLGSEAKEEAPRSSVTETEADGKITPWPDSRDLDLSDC
Adrenoreceptor beta 2 (ADRB2), sequence (P07550 whole entry): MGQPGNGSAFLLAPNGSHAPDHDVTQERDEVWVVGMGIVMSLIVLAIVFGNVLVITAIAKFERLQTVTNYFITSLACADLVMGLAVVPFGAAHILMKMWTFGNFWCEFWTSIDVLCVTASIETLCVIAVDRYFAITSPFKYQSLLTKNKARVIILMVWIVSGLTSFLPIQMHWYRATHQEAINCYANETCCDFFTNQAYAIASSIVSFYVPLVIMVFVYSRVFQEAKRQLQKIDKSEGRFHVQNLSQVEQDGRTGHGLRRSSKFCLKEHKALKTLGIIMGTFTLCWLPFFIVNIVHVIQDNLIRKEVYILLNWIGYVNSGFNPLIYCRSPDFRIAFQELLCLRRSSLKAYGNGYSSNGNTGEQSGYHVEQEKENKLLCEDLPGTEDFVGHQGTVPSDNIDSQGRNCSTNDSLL
Adrenoreceptor alpha 2A (ADRA2A), sequence (P08913 whole entry): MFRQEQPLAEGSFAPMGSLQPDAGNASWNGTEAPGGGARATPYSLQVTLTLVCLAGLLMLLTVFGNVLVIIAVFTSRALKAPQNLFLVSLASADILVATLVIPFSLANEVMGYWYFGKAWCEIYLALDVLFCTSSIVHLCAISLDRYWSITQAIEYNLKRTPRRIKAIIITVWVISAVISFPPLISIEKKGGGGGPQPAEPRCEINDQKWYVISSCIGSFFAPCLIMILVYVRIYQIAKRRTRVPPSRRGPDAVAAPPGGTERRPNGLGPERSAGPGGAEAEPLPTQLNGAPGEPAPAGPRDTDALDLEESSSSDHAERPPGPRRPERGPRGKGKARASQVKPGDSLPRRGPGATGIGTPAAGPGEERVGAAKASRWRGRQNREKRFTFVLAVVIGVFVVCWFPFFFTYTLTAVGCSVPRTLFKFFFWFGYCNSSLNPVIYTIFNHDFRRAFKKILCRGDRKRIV
Opioid Receptor mu (OPRM1), sequence (P35372 whole entry): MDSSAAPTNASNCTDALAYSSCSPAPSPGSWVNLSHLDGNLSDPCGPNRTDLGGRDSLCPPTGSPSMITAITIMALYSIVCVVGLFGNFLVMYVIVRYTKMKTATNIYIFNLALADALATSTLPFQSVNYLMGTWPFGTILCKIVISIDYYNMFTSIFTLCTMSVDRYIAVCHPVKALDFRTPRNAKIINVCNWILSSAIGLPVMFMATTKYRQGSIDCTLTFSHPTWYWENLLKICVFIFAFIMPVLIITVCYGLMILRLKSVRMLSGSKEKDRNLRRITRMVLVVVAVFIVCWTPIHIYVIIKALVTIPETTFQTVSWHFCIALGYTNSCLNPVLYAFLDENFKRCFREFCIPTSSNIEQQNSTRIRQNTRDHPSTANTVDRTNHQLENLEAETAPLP
Mono Amine Oxydase A (MAO-A), sequence (P21397 whole entry): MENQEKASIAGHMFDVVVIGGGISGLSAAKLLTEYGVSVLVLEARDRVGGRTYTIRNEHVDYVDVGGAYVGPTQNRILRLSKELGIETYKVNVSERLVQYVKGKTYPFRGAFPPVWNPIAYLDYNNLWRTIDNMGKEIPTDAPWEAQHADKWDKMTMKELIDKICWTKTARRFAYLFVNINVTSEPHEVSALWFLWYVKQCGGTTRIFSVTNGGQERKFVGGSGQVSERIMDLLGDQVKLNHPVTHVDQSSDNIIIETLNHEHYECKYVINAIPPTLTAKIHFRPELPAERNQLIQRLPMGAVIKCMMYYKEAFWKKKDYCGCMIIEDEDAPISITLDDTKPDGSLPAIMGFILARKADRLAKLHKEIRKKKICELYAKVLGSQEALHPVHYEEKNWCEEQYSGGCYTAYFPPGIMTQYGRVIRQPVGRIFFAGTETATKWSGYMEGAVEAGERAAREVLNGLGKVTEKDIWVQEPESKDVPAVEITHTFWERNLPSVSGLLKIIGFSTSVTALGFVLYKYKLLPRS
Nicotinic AChR alpha4 beta2 (nAChRa4b2), sequence (P43681 29-627 limits assumed): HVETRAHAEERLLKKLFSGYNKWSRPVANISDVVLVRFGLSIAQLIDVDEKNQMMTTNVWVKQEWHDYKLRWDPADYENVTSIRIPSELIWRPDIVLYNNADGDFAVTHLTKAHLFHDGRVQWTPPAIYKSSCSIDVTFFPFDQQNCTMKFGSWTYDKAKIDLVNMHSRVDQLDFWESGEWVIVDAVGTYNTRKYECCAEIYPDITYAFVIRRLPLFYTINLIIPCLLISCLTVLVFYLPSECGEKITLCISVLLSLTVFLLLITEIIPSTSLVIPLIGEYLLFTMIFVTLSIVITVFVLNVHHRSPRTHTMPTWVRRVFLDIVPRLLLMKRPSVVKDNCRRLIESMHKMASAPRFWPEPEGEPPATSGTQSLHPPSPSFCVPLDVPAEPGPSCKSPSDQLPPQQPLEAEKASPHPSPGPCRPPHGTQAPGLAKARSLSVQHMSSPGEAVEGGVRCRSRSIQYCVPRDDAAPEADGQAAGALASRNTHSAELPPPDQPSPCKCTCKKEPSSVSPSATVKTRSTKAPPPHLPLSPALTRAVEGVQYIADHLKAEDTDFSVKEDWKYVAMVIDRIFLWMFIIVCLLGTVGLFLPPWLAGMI
Nicotinic AChR alpha4 beta2 (nAChRa4b2), sequence (P17787 26-502): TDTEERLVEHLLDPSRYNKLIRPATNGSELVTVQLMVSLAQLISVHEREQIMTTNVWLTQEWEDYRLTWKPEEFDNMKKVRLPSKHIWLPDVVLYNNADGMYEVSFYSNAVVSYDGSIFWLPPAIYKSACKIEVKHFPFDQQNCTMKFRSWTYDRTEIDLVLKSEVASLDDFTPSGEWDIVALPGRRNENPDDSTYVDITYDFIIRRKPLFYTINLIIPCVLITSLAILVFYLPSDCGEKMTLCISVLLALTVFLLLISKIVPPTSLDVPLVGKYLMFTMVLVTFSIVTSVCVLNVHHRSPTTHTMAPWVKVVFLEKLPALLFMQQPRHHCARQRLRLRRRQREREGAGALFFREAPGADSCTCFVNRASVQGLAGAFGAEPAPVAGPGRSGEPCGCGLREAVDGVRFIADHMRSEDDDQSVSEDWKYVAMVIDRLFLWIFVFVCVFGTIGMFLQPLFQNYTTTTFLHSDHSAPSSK
Dopamine Transporter, sequence (Q01959 whole entry): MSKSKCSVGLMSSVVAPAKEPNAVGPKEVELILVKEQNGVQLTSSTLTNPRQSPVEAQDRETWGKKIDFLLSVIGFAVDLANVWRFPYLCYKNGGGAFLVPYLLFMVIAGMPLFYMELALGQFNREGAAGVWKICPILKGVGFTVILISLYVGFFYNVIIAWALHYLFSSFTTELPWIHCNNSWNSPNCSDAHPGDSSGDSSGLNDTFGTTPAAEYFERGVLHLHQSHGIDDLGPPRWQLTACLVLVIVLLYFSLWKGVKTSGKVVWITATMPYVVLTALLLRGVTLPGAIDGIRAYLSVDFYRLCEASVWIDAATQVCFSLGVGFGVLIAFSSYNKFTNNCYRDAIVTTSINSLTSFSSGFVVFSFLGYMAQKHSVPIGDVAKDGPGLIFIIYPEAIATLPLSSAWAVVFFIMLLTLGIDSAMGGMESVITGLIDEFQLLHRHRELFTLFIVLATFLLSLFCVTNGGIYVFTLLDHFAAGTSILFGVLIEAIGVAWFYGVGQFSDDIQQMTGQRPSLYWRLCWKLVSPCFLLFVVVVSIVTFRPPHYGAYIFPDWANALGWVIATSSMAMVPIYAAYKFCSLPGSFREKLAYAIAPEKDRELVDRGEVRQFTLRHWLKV

**Q.** For COc1ccc(C(N)=O)cn1 [JBSNF-000088, 6-methoxynicotinamide], which “shift in melting temperature (Tm), human NNMT” value (human NNMT) is on record?
**A.** 5 K

**Q.** What about the “insulin level or glucose-handling in NNMT knockout mice” value ([1]; NNMT knockout mice, vs vehicle-treated knockout) of the same molecule?
**A.** no differences in insulin level or glucose-handling

**Q.** And the Fed glucose levels ([1]; after 28 days, vehicle vs JBSNF-000088, wild-type or knockout)?
**A.** not different

**Q.** And the glucose tolerance ([1]; treated wild-type mice vs vehicle treated)?
**A.** improvement in glucose tolerance

**Q.** And the “plasma MNA” value ([1]; wild-type animals, one hour after last administration, 28-day treatment)?
**A.** significant reduction in plasma MNA

**Q.** What about the fed insulin levels ([1]; wild-type mice, four weeks, not statistically significant) of the same molecule?
**A.** trend to reduced insulin levels

**Q.** What about the food intake ([1]; wild-type or knockout animals, four weeks) of the same molecule?
**A.** no change in food intake

**Q.** And the “E% (agonistic), ADRA2A” value ([2]; 10 µM)?
**A.** 4%

**Q.** What about the inhibition at 10 µM ([2]; read-out: I% (antagonistic or inhibitory), ADRA2A) of the same molecule?
**A.** -12%

**Q.** What about the “E% (agonistic), ADRB1” value ([3]; 10 µM) of the same molecule?
**A.** 3%

**Q.** What about the inhibition at 10 µM ([3]; read-out: I% (antagonistic or inhibitory), ADRB1) of the same molecule?
**A.** -33%

**Q.** And the “E% (agonistic), ADRB2” value ([4]; 10 µM)?
**A.** 1%

**Q.** What about the inhibition at 10 µM ([4]; read-out: I% (antagonistic or inhibitory), ADRB2) of the same molecule?
**A.** 1%

**Q.** What about the “E% (agonistic), CB2” value ([5]; 10 µM) of the same molecule?
**A.** -7%

**Q.** What about the inhibition at 10 µM ([5]; read-out: I% (antagonistic or inhibitory), CB2) of the same molecule?
**A.** 1%

**Q.** And the “I% (antagonistic or inhibitory), Cl- Channel” value (Cl- Channel)?
**A.** 8%

**Q.** And the inhibition at 10 µM (Dopamine Transporter)?
**A.** 7%

**Q.** And the “I% (antagonistic or inhibitory), K+ Channel Voltage Dependent” value [6]?
**A.** 3%

**Q.** What about the inhibition at 10 µM [7] of the same molecule?
**A.** -1%

**Q.** What about the “I% (antagonistic or inhibitory), Na+/K+ ATPase Pump” value (Na+/K+ ATPase Pump) of the same molecule?
**A.** 0%

**Q.** What about the “E% (agonistic), NAR1” value (Niacin receptor (NAR1)) of the same molecule?
**A.** -3%

**Q.** What about the inhibition at 10 µM [8] of the same molecule?
**A.** 5%

**Q.** What about the “E% (agonistic), OPRM1” value ([9]; 10 µM) of the same molecule?
**A.** -1%

**Q.** What about the inhibition at 10 µM ([9]; OPRM1, read-out: I% (antagonistic or inhibitory), OPRM1) of the same molecule?
**A.** -8%

**Q.** And the “I% (antagonistic or inhibitory), PCP” value [10]?
**A.** -11%

**Q.** What about the “E% (agonistic), 5HT2A” value ([11]; 10 µM) of the same molecule?
**A.** 3%

**Q.** And the inhibition at 10 µM ([11]; read-out: I% (antagonistic or inhibitory), 5HT2A)?
**A.** -9%

**Q.** And the “I% (antagonistic or inhibitory), SK+Ca channel” value (SK+Ca channel-)?
**A.** -4%

**Q.** And the hERG inhibition (hERG)?
**A.** < 30%

**Q.** What about the “Cyp Inhibition” value (cytochrome P450 enzymes) of the same molecule?
**A.** >20 µM

**Q.** What about the “Metabolic stability mouse microsomes (% remaining)” value [12] of the same molecule?
**A.** 79%

**Q.** What about the “plasma clearance as share of hepatic blood flow in mice” value [13] of the same molecule?
**A.** approximately 25%
